Key:
Phytophthora infestans = type: in vivo; conditions: 200 ppm foliar spray, tomatoes (Patio), inoculated 1 day after spraying
Microsphaera diffusa = assay: Test Example 10: test for controlling soybean powdery mildew, foliar spray after inoculation; type: in vivo; conditions: 200 ppm foliar spray 2 days after inoculation, soybeans (Kurosengoku)

SMILES: CCCS(=O)(=O)c1nc(-c2ccc(C(C)(C)C)cc2)cs1 [IIC-16]
- lesion area in the treated tomatoes relative to the lesion area in the non-treated tomatoes (Phytophthora infestans): ≤ 30%

SMILES: CCCCCSc1ccn(-c2ccc(Cl)cc2)n1 [IIA-53]
- lesion area in the treated soybeans relative to the lesion area in the non-treated soybeans (Microsphaera diffusa): ≤ 30%

Source: patent US12690590B2, “Phenyl compound and plant disease control method” (SUMITOMO CHEMICAL COMPANY, LIMITED, priority 2020, dated 2026)
